# Data reported in patent US20250171463A1 (BIOGEN MA INC., priority 2022, published 2025).
# Target: T1, EBP (Homo sapiens, UniProt Q15125)
# T1 construct: HEK293T cells were utilized as the source of EBP enzyme; endogenous in cells; host or cells: HEK293T
# Assay: EBP Functional Assay (EBP immunoaffinity LC-MS assay)
# Type: biochemical
# Conditions: EBP enzyme from HEK293T cells; 30 min with inhibitor, then zymosterol-d5, 37° C., 4 h; percent conversion to dehydrolathosterol-d5 by LC-APCI MRM MS
# Procedure, shortened: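 IC50 comes from a 4-parameter logistic fit of zymosterol-d5-to-product percent conversion, measured by LC-APCI MRM MS after sterol extraction. Compounds were preincubated 30 min with EBP from HEK293T cells before deuterated substrate was added for 4 h at 37° C; Tasin-1 served as reference.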
# T1 sequence (Q15125 whole entry): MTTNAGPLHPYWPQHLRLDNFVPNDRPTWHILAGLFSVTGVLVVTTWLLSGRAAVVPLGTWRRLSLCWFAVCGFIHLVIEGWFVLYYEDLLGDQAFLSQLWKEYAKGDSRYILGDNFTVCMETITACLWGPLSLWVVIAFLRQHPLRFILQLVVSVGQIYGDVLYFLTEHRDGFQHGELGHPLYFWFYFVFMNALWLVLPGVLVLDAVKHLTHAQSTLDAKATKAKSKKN
row,SMILES,IC50
1,"Cc1nc(C(F)(F)F)ccc1S(=O)(=O)N1CC2(CN(C3CCC(C)(O)CC3)C2)C1 (centres unmarked) [Example 222, 1-methyl-4-(6-((2-methyl-6-(trifluoromethyl)pyridin-3-yl)sulfonyl)-2,6-diazaspiro[3.3]heptan-2-yl)cyclohexan-1-ol]",100 to 250 nM
2,"Cc1nc(C(F)(F)F)ccc1S(=O)(=O)N1CC2(CN(C3CCC(C)(O)CC3)C2)C1 (centres unmarked) [Example 223, 1-methyl-4-(6-((2-methyl-6-(trifluoromethyl)pyridin-3-yl)sulfonyl)-2,6-diazaspiro[3.3]heptan-2-yl)cyclohexan-1-ol]",250 to 4000 nM
3,"Cc1cc(C(F)(F)F)cnc1S(=O)(=O)N1CC2(CN(CC3CCOCC3)C2)C1 [Example 224, 2-((3-methyl-5-(trifluoromethyl)pyridin-2-yl)sulfonyl)-6-((tetrahydro-2H-pyran-4-yl)methyl)-2,6-diazaspiro[3.3]heptane]",250 to 4000 nM
4,"O=S(=O)(c1ccc(C(F)(F)F)nc1)N1CC2(CN(CC3CCOCC3)C2)C1 [Example 229, 2-((tetrahydro-2H-pyran-4-yl)methyl)-6-((6-(trifluoromethyl)pyridin-3-yl)sulfonyl)-2,6-diazaspiro[3.3]heptane]",250 to 4000 nM

# Next, values leading:
row,IC50,SMILES
1,250 to 4000 nM,"O=S(=O)(c1c(F)cc(OC(F)F)cc1F)N1CC2(CN(CC3CCOCC3)C2)C1 [Example 225, 2-((4-(difluoromethoxy)-2,6-difluorophenyl)sulfonyl)-6-((tetrahydro-2H-pyran-4-yl)methyl)-2,6-diazaspiro[3.3]heptane]"
2,250 to 4000 nM,"O=S(=O)(c1ccc(OC(F)F)cc1F)N1CC2(CN(CC3CCOCC3)C2)C1 [Example 226, 2-((4-(difluoromethoxy)-2-fluorophenyl)sulfonyl)-6-((tetrahydro-2H-pyran-4-yl)methyl)-2,6-diazaspiro[3.3]heptane]"
3,100 to 250 nM,"O=S(=O)(c1ccc(OC(F)F)cc1F)N1CC2(CN(C3CCOCC3)C2)C1 [Example 227, 2-((4-(difluoromethoxy)-2-fluorophenyl)sulfonyl)-6-(tetrahydro-2H-pyran-4-yl)-2,6-diazaspiro[3.3]heptane]"
4,250 to 4000 nM,"N#Cc1cc(C(F)(F)F)ccc1S(=O)(=O)N1CC2(CN(CC3CCOCC3)C2)C1 [Example 228, 2-((6-((tetrahydro-2H-pyran-4-yl)methyl)-2,6-diazaspiro[3.3]heptan-2-yl)sulfonyl)-5-(trifluoromethyl)benzonitrile]"
